Columns and labels:
DG-75 = assay: cells; assay type: functional, cell-based, Homo sapiens; conditions: Homo sapiens, DG-75;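 also: growth inhibition of DG-75 cells, read out with a cell viability assay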
Description: SANGER: Inhibition of human DG-75 cell growth in a cell viability assay.

CWR22R = assay: cells; assay type: functional, cell-based; conditions: Homo sapiens, 22Rv1;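 also: growth inhibition of 22Rv1 cells, read out with a cell viability assay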
Description: SANGER: Inhibition of human 22RV1 cell growth in a cell viability assay.

SW1417 = assay: cells; assay type: functional, cell-based; conditions: Homo sapiens;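 also: growth inhibition of human SW1417 cells, read out with a cell viability assay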
Description: SANGER: Inhibition of human SW1417 cell growth in a cell viability assay.

LN-405 = assay: cells; assay type: functional, cell-based; conditions: Homo sapiens
Description: SANGER: Inhibition of human LN-405 cell growth in a cell viability assay.

MIA PaCa-2 = assay: cells; assay type: functional, cell-based; conditions: Homo sapiens;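 also: growth inhibition of MIA PaCa-2 cells, read out with a cell viability assay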
Description: SANGER: Inhibition of human MIA-PaCa-2 cell growth in a cell viability assay.

CAKI-1 = assay: cells; assay type: functional, cell-based; conditions: Homo sapiens;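 also: growth inhibition of CAKI-1 cells, measured by a cell viability assay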
Description: SANGER: Inhibition of human CAKI-1 cell growth in a cell viability assay.

MeWo = assay: cells; assay type: functional, cell-based; conditions: Homo sapiens;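 also: growth inhibition of MeWo cells, determined by a cell viability readout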
Description: SANGER: Inhibition of human Mewo cell growth in a cell viability assay.

A2058 = assay: cells; assay type: functional, cell-based; conditions: Homo sapiens;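 also: reduction of A2058 cell growth, read out with a viability assay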
Description: SANGER: Inhibition of human A2058 cell growth in a cell viability assay.

NCI-H1882 = assay: cells; assay type: functional, cell-based, Homo sapiens; conditions: Homo sapiens, NCI-H1882;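 also: growth inhibition of the cell line, determined with a viability assay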
Description: SANGER: Inhibition of human NCI-H1882 cell growth in a cell viability assay.

TYK-nu = assay: cells; assay type: functional, cell-based; conditions: Homo sapiens;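 also: growth inhibition of human TYK-nu cells, read out by a cell viability assay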
Description: SANGER: Inhibition of human TYK-nu cell growth in a cell viability assay.

CAL-72 = assay: cells; assay type: functional, cell-based; conditions: Homo sapiens;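 also: cell viability assay measuring inhibition of proliferation in the CAL-72 cell line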
Description: SANGER: Inhibition of human CAL-72 cell growth in a cell viability assay.

HT1197 = assay: cells; assay type: functional, cell-based, HT-1197; conditions: Homo sapiens
Description: SANGER: Inhibition of human HT-1197 cell growth in a cell viability assay.

HSC-3 = assay: cells; assay type: functional, cell-based; conditions: Homo sapiens
Description: SANGER: Inhibition of human HSC-3 cell growth in a cell viability assay.

A204 = assay: cells; assay type: functional, cell-based; conditions: Homo sapiens;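 also: growth inhibition of human A204 cells, read out with a cell viability assay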
Description: SANGER: Inhibition of human A204 cell growth in a cell viability assay.

CPC-N = assay: cells; assay type: functional, cell-based, Homo sapiens; conditions: Homo sapiens, CPC-N;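 also: growth inhibition of CPC-N cells, with a cell viability assay as the readout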
Description: SANGER: Inhibition of human CPC-N cell growth in a cell viability assay.

GMS-10 = assay: cells; assay type: functional, cell-based; conditions: Homo sapiens;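 also: growth inhibition of GMS-10 cells, read out as cell viability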
Description: SANGER: Inhibition of human GMS-10 cell growth in a cell viability assay.

MFH-ino = assay: cells; assay type: functional, cell-based, Homo sapiens; conditions: Homo sapiens, MFH-ino;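 also: growth inhibition of human MFH-ino cells, read out by a cell viability assay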
Description: SANGER: Inhibition of human MFH-ino cell growth in a cell viability assay.

SW-620 = assay: cells; assay type: functional, cell-based; conditions: Homo sapiens;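 also: growth inhibition of human SW-620 cells, measured by a cell viability assay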
Description: SANGER: Inhibition of human SW620 cell growth in a cell viability assay.

OAW-28 = assay: cells; assay type: functional, cell-based; conditions: Homo sapiens;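 also: growth inhibition of OAW-28 cells, read out with a cell viability assay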
Description: SANGER: Inhibition of human OAW-28 cell growth in a cell viability assay.

MONO-MAC-6 = assay: cells; assay type: functional, cell-based, Homo sapiens; conditions: Homo sapiens, MONO-MAC-6;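 also: cell viability assay measuring growth inhibition of human MONO-MAC-6 cells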
Description: SANGER: Inhibition of human MONO-MAC-6 cell growth in a cell viability assay.

EB2 = assay: cells; assay type: functional, cell-based, Homo sapiens; conditions: Homo sapiens, EB2;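 also: growth inhibition of EB2 cells, read out with a cell viability assay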
Description: SANGER: Inhibition of human EB2 cell growth in a cell viability assay.

BT-20 = assay: cells; assay type: functional, cell-based; conditions: Homo sapiens;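 also: cell viability assay measuring suppression of growth in human BT-20 cells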
Description: SANGER: Inhibition of human BT-20 cell growth in a cell viability assay.

MEL-HO = assay: cells; assay type: functional, cell-based; conditions: Homo sapiens
Description: SANGER: Inhibition of human MEL-HO cell growth in a cell viability assay.

HEC-1 = assay: cells; assay type: functional, cell-based; conditions: Homo sapiens;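 also: growth inhibition of the cell line, read out with a cell viability assay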
Description: SANGER: Inhibition of human HEC-1 cell growth in a cell viability assay.

KYSE-410 = assay: cells; assay type: functional, cell-based; conditions: Homo sapiens;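 also: growth inhibition of KYSE-410 cells, measured through a cell viability readout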
Description: SANGER: Inhibition of human KYSE-410 cell growth in a cell viability assay.

IST-SL2 = assay: cells; assay type: functional, cell-based, Homo sapiens; conditions: Homo sapiens, IST-SL2;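 also: growth inhibition of human IST-SL2 cells, read out by a cell viability assay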
Description: SANGER: Inhibition of human IST-SL2 cell growth in a cell viability assay.

SK-MM-2 = assay: cells; assay type: functional, cell-based, Homo sapiens; conditions: Homo sapiens, SK-MM-2;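 also: growth inhibition of human SK-MM-2 cells, read out with a cell viability assay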
Description: SANGER: Inhibition of human SK-MM-2 cell growth in a cell viability assay.

NCI-H1993 = assay: cells; assay type: functional, cell-based; conditions: Homo sapiens;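 also: growth inhibition of the cancer cell line, assessed with a cell viability assay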
Description: SANGER: Inhibition of human NCI-H1993 cell growth in a cell viability assay.

NCI-H2196 = assay: cells; assay type: functional, cell-based, Homo sapiens; conditions: Homo sapiens, NCI-H2196; read-out: IC50;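 also: cell viability assay used as the readout of growth inhibition in NCI-H2196 cells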
Description: SANGER: Inhibition of human NCI-H2196 cell growth in a cell viability assay.

SNU-423 = assay: cells; assay type: functional, cell-based; conditions: Homo sapiens
Description: SANGER: Inhibition of human SNU-423 cell growth in a cell viability assay.

WSU-NHL = assay: cells; assay type: functional, cell-based, Homo sapiens; conditions: Homo sapiens, WSU-NHL;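 also: growth inhibition of human WSU-NHL cells, read out with a cell viability assay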
Description: SANGER: Inhibition of human WSU-NHL cell growth in a cell viability assay.

LC-1F = assay: cells; assay type: functional, cell-based, Homo sapiens; conditions: Homo sapiens, LC-1F;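 also: growth inhibition of human LC-1F cells, read out with a cell viability assay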
Description: SANGER: Inhibition of human LC-1F cell growth in a cell viability assay.

M059J = assay: cells; assay type: functional, cell-based; conditions: Homo sapiens;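 also: growth inhibition of M059J cells, read out with a cell viability assay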
Description: SANGER: Inhibition of human M059J cell growth in a cell viability assay.

Capan-2 = assay: cells; assay type: functional, cell-based; conditions: Homo sapiens;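 also: Capan-2 cell growth inhibition, read out with a viability assay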
Description: SANGER: Inhibition of human Capan-2 cell growth in a cell viability assay.

YT = assay: cells; assay type: functional, cell-based, Homo sapiens; conditions: Homo sapiens, YT
Description: SANGER: Inhibition of human YT cell growth in a cell viability assay.

EFO-21 = assay: cells; assay type: functional, cell-based; conditions: Homo sapiens;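 also: growth inhibition of EFO-21 cells measured with a viability assay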
Description: SANGER: Inhibition of human EFO-21 cell growth in a cell viability assay.

HSC-4 = assay: cells; assay type: functional, cell-based; conditions: Homo sapiens;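 also: growth inhibition of human HSC-4 cells, read out with a cell viability assay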
Description: SANGER: Inhibition of human HSC-4 cell growth in a cell viability assay.

DMS-79 = assay: cells; assay type: functional, cell-based, Homo sapiens; conditions: Homo sapiens, DMS-79
Description: SANGER: Inhibition of human DMS-79 cell growth in a cell viability assay.

SJRH30 = assay: cells; assay type: functional, cell-based; conditions: Homo sapiens;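 also: growth inhibition of human SJRH30 cells, read out with a cell viability assay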
Description: SANGER: Inhibition of human SJRH30 cell growth in a cell viability assay.

SN12C = assay: cells; assay type: functional, cell-based; conditions: Homo sapiens;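 also: growth inhibition of human SN12C cells, measured by a cell viability assay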
Description: SANGER: Inhibition of human SN12C cell growth in a cell viability assay.

UACC-62 = assay: cells; assay type: functional, cell-based; conditions: Homo sapiens;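 also: growth inhibition of human UACC-62 cells, read out by a cell viability assay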
Description: SANGER: Inhibition of human UACC-62 cell growth in a cell viability assay.

BHY = assay: cells; assay type: functional, cell-based; conditions: Homo sapiens;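 also: cell growth inhibition read out by a viability assay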
Description: SANGER: Inhibition of human BHY cell growth in a cell viability assay.

MDA-MB-361 = assay: cells; assay type: functional, cell-based; conditions: Homo sapiens
T-24 = assay: cells; assay type: functional, cell-based; conditions: Homo sapiens;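 also: growth inhibition of T-24 cells, read out with a cell viability assay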
Description: SANGER: Inhibition of human T-24 cell growth in a cell viability assay.

Calu-3 = assay: cells; assay type: functional, cell-based; conditions: Homo sapiens;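 also: growth inhibition of human Calu-3 cells, determined with a cell viability assay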
Description: SANGER: Inhibition of human Calu-3 cell growth in a cell viability assay.

G-401 = assay: cells; assay type: functional, cell-based; conditions: Homo sapiens
Description: SANGER: Inhibition of human G-401 cell growth in a cell viability assay.

COR-L279 = assay: SANGER: Inhibition of human COR-L279 cell growth in a cell viability assay.; assay type: functional, cell-based; conditions: Homo sapiens, COR-L279
AGS = assay: cells; assay type: functional, cell-based; conditions: Homo sapiens;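 also: growth inhibition of AGS cells, determined with a cell viability assay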
Description: SANGER: Inhibition of human AGS cell growth in a cell viability assay.

P12-Ichikawa = assay: cells; assay type: functional, cell-based; conditions: Homo sapiens
SW780 = assay: cells; assay type: functional, cell-based; conditions: Homo sapiens;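 also: growth inhibition of the cells, read out with a cell viability assay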
Description: SANGER: Inhibition of human SW780 cell growth in a cell viability assay.

SCC-3 = assay: cells; assay type: functional, cell-based, Homo sapiens; conditions: Homo sapiens, SCC-3;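 also: cell viability assay measuring inhibition of SCC-3 cell growth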
Description: SANGER: Inhibition of human SCC-3 cell growth in a cell viability assay.

SK-OV-3 = assay: cells; assay type: functional, cell-based; conditions: Homo sapiens;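 also: growth inhibition of SK-OV-3 human cells, read out with a cell viability assay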
Description: SANGER: Inhibition of human SK-OV-3 cell growth in a cell viability assay.

RO82-W-1 = assay: cells; assay type: functional, cell-based; conditions: Homo sapiens;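 also: growth inhibition of human RO82-W-1 cells, measured with a cell viability assay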
Description: SANGER: Inhibition of human RO82-W-1 cell growth in a cell viability assay.

Hs-578T = assay: cells; assay type: functional, cell-based; conditions: Homo sapiens
Description: SANGER: Inhibition of human Hs-578-T cell growth in a cell viability assay.

NCI-H1693 = assay: cells; assay type: functional, cell-based; conditions: Homo sapiens;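 also: growth inhibition of the human cell line, read out with a cell viability assay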
Description: SANGER: Inhibition of human NCI-H1693 cell growth in a cell viability assay.

MDA-MB-175-VII = assay: cells; assay type: functional, cell-based; conditions: Homo sapiens
NCI-H1417 = assay: cells; assay type: functional, cell-based, Homo sapiens; conditions: Homo sapiens, NCI-H1417;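 also: human NCI-H1417 cells, growth inhibition determined with a cell viability readout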
Description: SANGER: Inhibition of human NCI-H1417 cell growth in a cell viability assay.

RT-112 = assay: cells; assay type: functional, cell-based; conditions: Homo sapiens
Description: SANGER: Inhibition of human RT-112 cell growth in a cell viability assay.

HT-3 = assay: cells; assay type: functional, cell-based; conditions: Homo sapiens;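 also: growth inhibition measured with a cell viability readout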
Description: SANGER: Inhibition of human HT-3 cell growth in a cell viability assay.

COc1ccc(-c2cc3nccn3c(Nc3ncccc3C(N)=O)n2)cc1OC gave an IC50 (DG-75) greater than 8000 nM, an IC50 (CWR22R) greater than 8000 nM and an IC50 (SW1417) greater than 8000 nM. For the same compound, the IC50 (LN-405) was greater than 8000 nM, the IC50 (MIA PaCa-2) was 5400 nM and the IC50 (CAKI-1) was 6100 nM. For the same compound, the IC50 (MeWo) was greater than 8000 nM, the IC50 (A2058) was greater than 8000 nM and the IC50 (NCI-H1882) was greater than 8000 nM. The IC50 (TYK-nu) was greater than 8000 nM, the IC50 (CAL-72) was greater than 8000 nM and the IC50 (HT1197) was greater than 8000 nM. For the same compound, the IC50 (HSC-3) was greater than 8000 nM, the IC50 (A204) was greater than 8000 nM and the IC50 (CPC-N) was greater than 8000 nM. It also gave an IC50 (GMS-10) greater than 8000 nM, an IC50 (MFH-ino) greater than 8000 nM and an IC50 (SW-620) of 3310 nM. It also gave an IC50 (OAW-28) greater than 8000 nM, an IC50 (MONO-MAC-6) of 963 nM and an IC50 (EB2) of 837 nM. The IC50 (BT-20) was greater than 8000 nM, the IC50 (MEL-HO) was 2950 nM and the IC50 (HEC-1) was greater than 8000 nM. The IC50 (KYSE-410) was 7220 nM, the IC50 (IST-SL2) was 1070 nM and the IC50 (SK-MM-2) was greater than 8000 nM. It also gave an IC50 (NCI-H1993) greater than 8000 nM, an IC50 (NCI-H2196) greater than 8000 nM and an IC50 (SNU-423) greater than 8000 nM. It also gave an IC50 (WSU-NHL) of 1380 nM, an IC50 (LC-1F) greater than 8000 nM and an IC50 (M059J) of 2840 nM. It also gave an IC50 (Capan-2) greater than 8000 nM, an IC50 (YT) of 2340 nM and an IC50 (EFO-21) greater than 8000 nM. The IC50 (HSC-4) was greater than 8000 nM, the IC50 (DMS-79) was greater than 8000 nM and the IC50 (SJRH30) was greater than 8000 nM. The IC50 (SN12C) was greater than 8000 nM, the IC50 (UACC-62) was greater than 8000 nM and the IC50 (BHY) was 2810 nM. It also gave an IC50 (MDA-MB-361) greater than 8000 nM, an IC50 (T-24) greater than 8000 nM and an IC50 (Calu-3) greater than 8000 nM. The IC50 (G-401) was 5750 nM, the IC50 (COR-L279) was 4200 nM and the IC50 (AGS) was greater than 8000 nM. It also gave an IC50 (P12-Ichikawa) of 4370 nM, an IC50 (SW780) greater than 8000 nM and an IC50 (SCC-3) of 7500 nM. For the same compound, the IC50 (SK-OV-3) was greater than 8000 nM, the IC50 (RO82-W-1) was greater than 8000 nM and the IC50 (Hs-578T) was greater than 8000 nM. The IC50 (NCI-H1693) was greater than 8000 nM, the IC50 (MDA-MB-175-VII) was greater than 8000 nM and the IC50 (NCI-H1417) was greater than 8000 nM. It also gave an IC50 (RT-112) greater than 8000 nM and an IC50 (HT-3) greater than 8000 nM.

Compound COC(=O)[C@H](CCSC)NC(=O)c1ccc(NC[C@@H](N)CS)cc1-c1ccccc1 has an IC50 (DG-75) greater than 1020 nM, an IC50 (CWR22R) greater than 1020 nM and an IC50 (SW1417) greater than 1020 nM. The IC50 (LN-405) was greater than 1020 nM, the IC50 (MIA PaCa-2) was greater than 1020 nM and the IC50 (CAKI-1) was greater than 1020 nM. For the same compound, the IC50 (MeWo) was greater than 1020 nM, the IC50 (A2058) was greater than 1020 nM and the IC50 (NCI-H1882) was greater than 1020 nM. For the same compound, the IC50 (TYK-nu) was greater than 1020 nM, the IC50 (CAL-72) was greater than 1020 nM and the IC50 (HT1197) was greater than 1020 nM. For the same compound, the IC50 (HSC-3) was greater than 1020 nM, the IC50 (A204) was greater than 1020 nM and the IC50 (CPC-N) was greater than 1020 nM. It also gave an IC50 (GMS-10) greater than 1020 nM, an IC50 (MFH-ino) greater than 1020 nM and an IC50 (SW-620) greater than 1020 nM. It also gave an IC50 (OAW-28) greater than 1020 nM, an IC50 (MONO-MAC-6) greater than 1020 nM and an IC50 (EB2) greater than 1020 nM. For the same compound, the IC50 (BT-20) was greater than 1020 nM, the IC50 (MEL-HO) was greater than 1020 nM and the IC50 (HEC-1) was greater than 1020 nM. The IC50 (KYSE-410) was greater than 1020 nM, the IC50 (IST-SL2) was greater than 1020 nM and the IC50 (SK-MM-2) was greater than 1020 nM. For the same compound, the IC50 (NCI-H1993) was greater than 1020 nM, the IC50 (NCI-H2196) was greater than 1020 nM and the IC50 (SNU-423) was greater than 1020 nM. For the same compound, the IC50 (WSU-NHL) was greater than 1020 nM, the IC50 (LC-1F) was greater than 1020 nM and the IC50 (M059J) was greater than 1020 nM. For the same compound, the IC50 (Capan-2) was greater than 1020 nM, the IC50 (YT) was greater than 1020 nM and the IC50 (EFO-21) was greater than 1020 nM. The IC50 (HSC-4) was greater than 1020 nM, the IC50 (DMS-79) was greater than 1020 nM and the IC50 (SJRH30) was greater than 1020 nM. The IC50 (SN12C) was greater than 1020 nM, the IC50 (UACC-62) was greater than 1020 nM and the IC50 (BHY) was greater than 1020 nM. The IC50 (MDA-MB-361) was greater than 1020 nM, the IC50 (T-24) was greater than 1020 nM and the IC50 (Calu-3) was greater than 1020 nM. It also gave an IC50 (G-401) greater than 1020 nM, an IC50 (COR-L279) greater than 1020 nM and an IC50 (AGS) greater than 1020 nM. For the same compound, the IC50 (P12-Ichikawa) was greater than 1020 nM, the IC50 (SW780) was greater than 1020 nM and the IC50 (SCC-3) was greater than 1020 nM. It also gave an IC50 (SK-OV-3) greater than 1020 nM, an IC50 (RO82-W-1) greater than 1020 nM and an IC50 (Hs-578T) greater than 1020 nM. It also gave an IC50 (NCI-H1693) greater than 1020 nM, an IC50 (MDA-MB-175-VII) greater than 1020 nM and an IC50 (NCI-H1417) greater than 1020 nM. It also gave an IC50 (RT-112) greater than 1020 nM and an IC50 (HT-3) greater than 1020 nM.

From ChEMBL document CHEMBL1201861, “Genomics of Drug Sensitity in Cancer screening data, Wellcome Trust Sanger Institute”
